Entries after “also recorded” stand apart in the source; their conditions may differ.
How the values were obtained:
STAT3 = STAT3 cytosolic phosphorylation and nuclear translocation, immunoblots of OSCC cell lines; assay type: cell-based, human
Experimental: FIGS. 2A, 2B, and 2C show the treatment effects of fenretinide (4-HPR, 5 μM), 2-methoxyestradiol (2-ME, 2.5 μM) and the STAT3 inhibitor LY5 (0.5 μM) on STAT3 phosphorylation and nuclear translocation. (A) (JSCC1 cells) (B) (JSCC2 cells) and (C) (JSCC3 cells) were evaluated. Cytosolic and nuclear proteins were harvested from sera deprived JSCC1 and JSCC2 cell lines following 24 h of treatment (5 μM 4-HPR, 2.5 μM 2-ME, or 0.5 μM LY5) or vehicle (0.1% DMSO) control. […] As the JSCC3 cells don't constitutively express pSTAT3, these cells underwent 24 h stimulation in base medium supplemented with 10 ng/mL of IL-6 or 5 ng/mL of TGF-α, with or without 4-HPE, 2-ME or LY5 treatment, followed by harvest. […] (n=3, p<0.05, Wilcoxon matched pairs signed rank test).
Dosing levels were determined by concurrent proliferation and viability studies in conjunction with literature values. The cells in every treatment group were then stimulated for 20 minutes with: vehicle (1 μl ddH2O), 50 ng/ml EGF, 50 ng/ml VEGF, or 50 ng/ml EGF+50 ng/ml VEGF, followed by standard immunoblotting and data normalization relative to GAPDH. […] Immunoblot images were captured (Li-Cor Odyssey imager) and analyzed (Li-Cor Image Studio, Version 4.0) to depict effects on treatment on phosphorylation relative to respective levels of GAPDH. […]

[1] = cited from earlier work
ATP binding sites of FAK = ATP binding sites of FAK (Homo sapiens, UniProt Q05397); settings: cited from earlier work
Chain of ATP binding sites of FAK (Q05397 whole entry): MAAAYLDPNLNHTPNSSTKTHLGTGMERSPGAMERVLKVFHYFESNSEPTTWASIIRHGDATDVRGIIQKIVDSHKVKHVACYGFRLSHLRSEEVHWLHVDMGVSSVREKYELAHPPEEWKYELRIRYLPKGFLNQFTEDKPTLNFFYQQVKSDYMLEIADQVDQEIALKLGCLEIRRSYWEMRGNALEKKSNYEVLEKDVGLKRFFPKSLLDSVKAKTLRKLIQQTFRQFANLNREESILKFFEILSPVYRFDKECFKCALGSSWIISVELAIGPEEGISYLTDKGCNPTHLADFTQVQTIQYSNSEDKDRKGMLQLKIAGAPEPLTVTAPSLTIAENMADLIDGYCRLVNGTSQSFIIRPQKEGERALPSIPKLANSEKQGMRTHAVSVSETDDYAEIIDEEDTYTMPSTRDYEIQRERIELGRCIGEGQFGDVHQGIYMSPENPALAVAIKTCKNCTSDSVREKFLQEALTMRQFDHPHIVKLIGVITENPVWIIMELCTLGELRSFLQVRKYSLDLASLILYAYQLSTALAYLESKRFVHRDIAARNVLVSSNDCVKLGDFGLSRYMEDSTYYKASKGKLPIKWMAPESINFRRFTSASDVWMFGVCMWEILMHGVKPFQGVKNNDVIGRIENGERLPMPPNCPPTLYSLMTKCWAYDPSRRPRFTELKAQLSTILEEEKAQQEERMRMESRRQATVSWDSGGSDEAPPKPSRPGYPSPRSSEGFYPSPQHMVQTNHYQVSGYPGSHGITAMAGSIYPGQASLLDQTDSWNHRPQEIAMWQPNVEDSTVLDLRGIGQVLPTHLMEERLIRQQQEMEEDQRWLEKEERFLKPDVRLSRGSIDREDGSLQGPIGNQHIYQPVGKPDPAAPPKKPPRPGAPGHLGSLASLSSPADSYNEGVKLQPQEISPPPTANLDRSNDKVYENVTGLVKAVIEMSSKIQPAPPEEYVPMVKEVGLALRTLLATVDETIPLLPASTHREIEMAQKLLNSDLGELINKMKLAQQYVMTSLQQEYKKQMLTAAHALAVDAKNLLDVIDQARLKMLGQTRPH

apoptosis = settings: reference 21; cited from earlier work
[2] = 4-HPR release from PLGA implants, tumor and sera levels (UPLC/UV); assay type: in vivo, nude mice
Source text: Determination of 4-HPR tumor levels entailed recording tumor wet mass, addition of internal standard (acitretin) and RIPA lysis buffer, followed by homogenization, addition of acetonitrile and centrifugation. Acetretin percent recovery was compared to a RIPA buffer/acetonitrile extraction control solution spiked with equivalent amount of acetretin and 4-HPR. Sera preparation entailed addition of acetretin and acetonitrile, sonication, followed by centrifugation.
SCC2095sc cells [10^6 cells suspended in 100 μl Matrigel (Corning Life Sciences, Corning, N.Y.)] were subcutaneously injected in the flanks of 6 week old male nude mice (n=6 per treatment group). Tumor measurements were recorded daily with calipers (greatest length and greatest width) and final tumor volumes calculated via tumor volume V=(length×width)×½. Treatment groups consisted of: 1) control (PBS injections)+blank (no drug) PLGA implants, 2) 2-ME (1 μg/100 μl PBS, b.i.d.)+blank PLGA implant, 3) 4-HPR releasing PLGA implant+PBS injections, 4) TOC q.d. (0.3 μg/100 μl PBS)+PLGA blank implant, 5) 2-ME (1 μg/100 μl PBS, b.i.d.)+4-HPR releasing PLGA implant, 6) 2-ME (1 μg/100 μl PBS, b.i.d.)+TOC q.d. (0.3 μg/100 μl PBS)+blank PLGA implant, 7) TOC q.d. (0.3 μg/100 μl PBS)+4-HPR releasing PLGA implant, 8) 2-ME (1 μg/100 μl PBS, b.i.d.)+TOC q.d. (0.3 μg/100 μl PBS)+4-HPR releasing PLGA implant. By day 14 post injection, all mice had measurable tumors and treatment began on day 15. […] Pretreatment mean tumor volumes therefore varied among treatment groups. PLGA implants (via trocar) and injections were placed in the center of the tumor. At day 28 post OSCC xenograft placement final tumor measurements were obtained, the mice were euthanized and OSCC tumors along with lung, liver and sera were harvested for pharmacokinetic, histologic and IHC analyses (Ki-67, cleaved caspase-3 and involucrin). Image analyses of the nuclear stains (Ki-67 and cleaved caspase 3) were conducted using Image-Pro Plus 6.2 software (Media Cybernetics, Rockville, Md.).

CC1=C(/C=C/C(C)=C/C=C/C(C)=C/C(=O)Nc2ccc(O)cc2)C(C)(C)CCC1 [4-HPR, 4-hydroxy(phenyl)retinamide]
constitutive STAT3 phosphorylation and pSTAT3 nuclear translocation (STAT3; JSCC1 and JSCC2 cells, 5 μM, 24 h): suppressed; also recorded: significantly reduced | suppression of STAT3 activation and nuclear translocation relative to STAT3 inhibitor LY5 (STAT3; JSCC1 cells, 5 μM 4-HPR vs 0.5 μM LY5): appreciably more effectively | log P [1]: 8.03 | binding to ATP binding site (ATP binding sites of FAK): binds with high affinity | apoptosis-inducing concentration (apoptosis): 10 µM | detectable levels in the sera ([2]; 4-HPR or its metabolites, any animals): absence of any detectable levels | concentration at 28 days post xenograft placement (treatment began on day 15) ([2]; male, nude, mouse, serum, all mice that received PLGA implants, below LLOQ): < 50 ng/mL

Reference: patent publication US11484591B2, “Chemoprevention using controlled-release formulations of anti-interleukin 6 agents, synthetic vitamin A analogues or metabolites, and estradiol metabolites” (OHIO STATE INNOVATION FOUNDATION, priority 2016, dated 2022)
